Columns and labels:
[1] = test system: patients with major depressive disorder (MDD); experiment: Open-label 12-week study of memantine in MDD (MEM-MD-09): safety and adverse events; format: in vivo, human
Experimental: Study Design. The study was designed as a single-center, open-label, flexible dose 12-week study. Memantine was to be administered at 20 mg/day (10 mg b.i.d.) (titrated over a 4 week period), and, if warranted, up-titrated to a maximum of 40 mg/day (20 mg b.i.d.) (titrated in increments of 10 mg/day after Week 4).
Drug Treatment. All eight patients were initially given 5 mg/day and titrated over a 3-week period to a minimum dose of 20 mg/day. Patients with an unsatisfactory therapeutic response (CGI-I score greater than 2) could increase to a maximum of 40 mg/day (2 patients, 30 mg/day and 40 mg/day, respectively). One patient was titrated to 30 mg/day after Week 8, and […] after Week 10. The mean treatment duration was 82 days (range: 57-86 days) and the mean daily dose was 18.1 mg/day.
Safety. Safety was assessed throughout the course of the study by monitoring vital signs and spontaneously reported adverse events.

[2] = cited from earlier work

CC12CC3CC(C)(C1)CC(N)(C3)C2.Cl [Memantine, 1-amino-3,5-dimethyladamantane hydrochloride]
clinical laboratory parameters, vital signs or ECG values ([1]; 20-40 mg/day, 12 weeks): no safety findings of concern
deaths, serious adverse events, discontinuations due to adverse events ([1]; 20-40 mg/day, 12 weeks): No deaths, serious adverse events or discontinuations due to adverse events
safety and tolerability ([1]; 20-40 mg/day, 12 weeks): safe and well tolerated
Number of Patients Reporting TEAE: Amnesia ([1]; Safety Population, N = 8): 2 patients
Number of Patients Reporting TEAE: Anxiety ([1]; Safety Population, N = 8): 2 patients
Number of Patients Reporting TEAE: Dizziness ([1]; Safety Population, N = 8): 2 patients
Number of Patients Reporting TEAE: Headache ([1]; Safety Population, N = 8): 2 patients
Number of Patients Reporting TEAE: Influenza-like Symptoms ([1]; Safety Population, N = 8): 2 patients
Number of Patients Reporting TEAE: Insomnia ([1]; Safety Population, N = 8): 2 patients
Number of Patients Reporting TEAE: Patients with at least one TEAE ([1]; Safety Population, N = 8): 8 patients
Number of Patients Reporting TEAE: Somnolence ([1]; Safety Population, N = 8): 3 patients
solubility in aqueous media [2]: highly soluble
